Experimental data from patent US8551721B2, “Bioluminescent detection of cyanohydroxy benzothiazole compounds” (Promega Corporation, priority 2008, dated 2013).

Columns and labels:
Assay type in all cases: biochemical
UGT 1A4 = target: T1, UGT 1A4 (Homo sapiens, UniProt P22310); assay: UGT activity: utilization of substrate by recombinant UGT 1A4 Supersomes; details: 2 hour incubation at 37° C., plus vs minus UDPGA
T1 construct: purchased BD Gentest; host or cells: insect cells (microsomes)
T1 sequence (P22310 29-534): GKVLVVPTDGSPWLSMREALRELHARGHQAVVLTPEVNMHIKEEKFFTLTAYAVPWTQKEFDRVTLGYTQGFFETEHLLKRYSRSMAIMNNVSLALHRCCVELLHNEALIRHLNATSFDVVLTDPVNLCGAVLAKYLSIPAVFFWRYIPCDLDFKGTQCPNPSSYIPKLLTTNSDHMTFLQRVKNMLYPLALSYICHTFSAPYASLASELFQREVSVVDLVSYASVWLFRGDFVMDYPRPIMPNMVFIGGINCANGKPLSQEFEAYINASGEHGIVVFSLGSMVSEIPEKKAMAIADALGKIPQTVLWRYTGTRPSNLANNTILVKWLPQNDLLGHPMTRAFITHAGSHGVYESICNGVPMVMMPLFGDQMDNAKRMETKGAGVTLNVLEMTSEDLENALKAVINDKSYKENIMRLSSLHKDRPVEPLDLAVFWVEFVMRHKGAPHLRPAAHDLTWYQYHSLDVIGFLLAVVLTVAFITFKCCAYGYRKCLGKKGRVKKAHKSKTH
Procedure: (§1) The invention includes a method of determining activity of the uridine 5′-diphospho-glucuronosyltransferase (UDP-glucuronosyltransferase, or UGT) family enzymes in vitro. Briefly, UGT enzymes from overexpressed insect microsomes (Supersomes™, BD Gentest™) or animal tissue microsomes (Xenotech, BD Gentest™) were incubated with a cyanobenzothiazole substrate of the invention and the cofactor UDP-glucuronic acid (UDPGA) at 37° C. in buffer at physiological pH containing MgCl2 and alamethicin (typically, 50 mM TES, pH 7.5, 8 mM MgCl2, 4 mM UDPGA (Sigma) and 25 μg/mL alamethicin (Sigma)). Following the UGT enzyme reaction, an equal volume of P450-Glo Luciferin Detection Reagent (Promega) containing 15-30 mM D-cysteine-HCl.H2O (Sigma) was added and the plate was mixed and incubated at room temperature, typically for 20-30 minutes. P450-Glo Luciferin Detection Reagent can be prepared by dissolving a vial of Promega Luciferin Detection Reagent (Promega Part #V859B) with a vial of Promega P450-Glo Buffer (Promega Part #V865B).
(§2) During this incubation, the cysteine reacts with the cyanobenzathiozole substrate to yield a D-luciferin derivative. […] Therefore, activity of the UGT enzyme can be measured by analyzing the difference (lower or no output) in relative light units (RLU) of a sample in which glucuronidation occurs compared to a sample that was run under the same conditions with no added UDPGA cofactor.
In this example, a series of 12 recombinant UGTs expressed in insect microsomes (Supersomes™, BD Gentest™), as well as the control microsomes not expressing the UGT enzyme, were incubated with compound 3138, compound 3478, or compound 3165 as substrates, with or without the UDPGA co-factor. […]
(§3) Reactions were assembled in a white 96-well plate. […] After the incubation was completed, the plate was read on a Veritas™ luminometer (Turner BioSystems, Inc.; Sunnyvale, Calif.). […]

UGT 1A10 = target: T2, UGT 1A10 (Homo sapiens, UniProt Q9HAW8); assay: UGT activity: utilization of substrate by recombinant UGT 1A10 Supersomes; details: 2 hour incubation at 37° C., plus vs minus UDPGA, background corrected
T2 construct: purchased BD Gentest; host or cells: insect cells (microsomes)
T2 sequence (Q9HAW8 26-530): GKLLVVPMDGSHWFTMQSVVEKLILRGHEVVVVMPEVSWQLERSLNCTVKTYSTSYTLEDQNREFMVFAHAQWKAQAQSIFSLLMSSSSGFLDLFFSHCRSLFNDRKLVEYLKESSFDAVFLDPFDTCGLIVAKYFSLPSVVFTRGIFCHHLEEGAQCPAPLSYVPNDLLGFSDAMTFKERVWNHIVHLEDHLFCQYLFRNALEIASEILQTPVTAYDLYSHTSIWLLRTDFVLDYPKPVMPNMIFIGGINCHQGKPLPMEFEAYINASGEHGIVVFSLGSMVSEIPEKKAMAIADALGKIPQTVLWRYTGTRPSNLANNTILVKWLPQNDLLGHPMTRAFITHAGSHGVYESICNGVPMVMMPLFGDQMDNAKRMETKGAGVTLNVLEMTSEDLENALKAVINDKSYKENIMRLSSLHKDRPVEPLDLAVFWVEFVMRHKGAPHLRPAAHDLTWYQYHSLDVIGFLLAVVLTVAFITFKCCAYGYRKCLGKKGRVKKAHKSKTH
Procedure: as §1, with “P450-Glo Luciferin Detection Reagent can be prepared by dissolving a vial of Promega Luciferin Detection Reagent (Promega Part #V859B) with a vial of Promega P450-Glo Buffer (Promega Part #V865B).” left out
as §2, with “cofactor. […]” for “cofactor.”
as §3

UGT 2B17 = target: T3, UGT 2B17 (Homo sapiens, UniProt O75795); assay: UGT activity: utilization of substrate by recombinant UGT 2B17 Supersomes; details: 2 hour incubation at 37° C., plus vs minus UDPGA
T3 construct: purchased BD Gentest; host or cells: insect cells (microsomes)
T3 sequence (O75795 24-530): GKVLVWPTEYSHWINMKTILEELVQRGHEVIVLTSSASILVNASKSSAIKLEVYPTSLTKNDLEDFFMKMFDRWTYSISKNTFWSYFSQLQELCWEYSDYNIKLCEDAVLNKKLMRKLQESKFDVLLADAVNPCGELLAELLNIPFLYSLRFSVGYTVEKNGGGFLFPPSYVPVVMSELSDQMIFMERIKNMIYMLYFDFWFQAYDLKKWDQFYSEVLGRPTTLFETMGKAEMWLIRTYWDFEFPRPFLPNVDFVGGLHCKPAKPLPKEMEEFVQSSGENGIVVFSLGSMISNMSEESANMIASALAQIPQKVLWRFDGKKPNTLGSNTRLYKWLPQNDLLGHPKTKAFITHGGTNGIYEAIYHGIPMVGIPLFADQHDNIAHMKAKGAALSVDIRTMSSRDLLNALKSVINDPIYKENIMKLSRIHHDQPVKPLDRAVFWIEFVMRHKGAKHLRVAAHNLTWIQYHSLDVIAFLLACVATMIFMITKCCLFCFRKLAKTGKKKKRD
Procedure: as §1, with “P450-Glo Luciferin Detection Reagent can be prepared by dissolving a vial of Promega Luciferin Detection Reagent (Promega Part #V859B) with a vial of Promega P450-Glo Buffer (Promega Part #V865B).” left out
as §2, with “cofactor. […]” for “cofactor.”
as §3

Cc1cc(O)cc2sc(C#N)nc12 [compound 3138]
utilization by UGT 1A4 (in words) (UGT 1A4): did not utilize either compound 3138 or 3478 to an appreciable extent
% utilization by UGT 1A10 (UGT 1A10): over 50%
utilization by UGT 2B17 (in words) (UGT 2B17): detectable levels of utilization above background

Cc1cc(O)cc2sc(C3=NC(C(=O)O)CS3)nc12 (stereo not drawn) [compound 3478]
utilization by UGT 1A4 (in words) (UGT 1A4): did not utilize either compound 3138 or 3478 to an appreciable extent
% utilization by UGT 1A10 (UGT 1A10): ≤ 15%
utilization by UGT 2B17 (in words) (UGT 2B17): only UGT 1A6 was able to utilize compound 3478 to any appreciable extent
